Results as given in patent US11028077B2, “Crystalline pharmaceutical and methods of preparation and use thereof” (NOVARTIS PHARMACEUTICALS CORPORATION, priority 2008, dated 2021).
Where “and” joins values, the source holds several entries; their conditions need not be identical. Equal values may be shown once. Read-outs that look alike come from different tables or passages of the source.

Assays:
[1] = system: rats; assay: CNS effects in rats, single bolus IV injection; assay type: in vivo, rat; details: 10.0 mg/kg IV, 1 minute to 6 hours postdose, 2/6 animals at each time point
Source text: No effect on any other parameters was observed.

[2] = Plasma PK after single IV bolus dose in rats; assay type: in vivo, rat
[3] = system: human mononuclear cells (PBMC) stimulated with staphylococcal enterotoxin B (SEB); assay: cells; assay type: cell-based
[4] = system: dogs; assay: 13-week ocular toxicity study in dogs with 4-week recovery (toxicity and TK); details: dogs (3%)
[5] = Rat ocular pharmacokinetics of [14C]-compound (ocular tissue levels); assay type: in vivo; details: rat, for 16 hrs
[6] = system: cell attachment and SEB IL-2 release; assay: cells; assay type: cell-based
[7] = system: dogs; assay: Pilot ocular tolerance / PK of topically administered compound in dogs; assay type: in vivo, dog; details: up to 10% strength at 3 doses/day
[8] = system: mini-pigs; assay: Pilot mini-pig dermal study
[9] = system: CD-1 (ICR) BR mice; assay: In vivo mouse bone marrow micronucleus assay; details: repeated IV administrations
[10] = system: Keratoconjunctivitis Sicca (KCS); assay: Canine keratoconjunctivitis sicca (KCS) study; assay type: in vivo, dog
Source text: If dogs had been treated with topical CsA or tacrolimus in the previous six months, they were not enrolled. […] Animals were subjected to an ocular examination once during the initial visit and during five visits over sixteen weeks of the study (Weeks, 2, 4, 8, 12 and 16). The last OE was approximately four weeks after the last dose of the compound of Formula I and after one month of CsA treatment. The adnexa and anterior portions of both eyes were examined using an indirect opthalmoscope. The eyes were dilated with a mydriatic when applicable, to allow evaluation of the lens and fundus, including the retina. An evaluation using a modified McDonald-Shaddock scoring system was performed in conjunction with the slitlamp ocular examinations at each interval. Tears were measured using STT strips during the initial visit and each of the five follow-up visits on Weeks 2, 4, 8, 12 and 16. One strip of STT paper was used for each eye for each interval. […] The length, in mm, of wetting below the notch of the paper was recorded. Fluorescein and rose bengal staining was performed at the each of the initial and follow up examinations. Intraocular pressure measurements (IOPs) were performed using a Tono-Pet Vet® in conjunction with each of the OEs. Digital ocular images were taken before and after staining (with fluorescein and rose bengal) during each of the OEs. Conjunctival biopsies were taken at the initial (pretreatment) visit and the Week 12 visit. The second biopsy was taken more lateral (approx. 1 mm) to the initial biopsy. Following appropriate preparation a small conjunctival biopsy was taken from the ventral fornix of each eye.

[11] = system: HuT 78 cell adhesion to 5dICAM-Ig; assay: Human T-cell adhesion assay (HuT 78 cell adhesion to 5dICAM-Ig); assay type: cell-based; details: HuT78, HuT 78 cells, read-out: EC50, inhibition of T-cell adhesion
Description: The T-cell adhesion assay was performed using the human T-lymphoid cell line HuT 78 (ATCC TIB-161). Goat anti-HuIgG(Fc) was diluted to 2 μg/ml in PBS and 96-well plates were coated with 50 μl/well at 37° C. for 1 h. Plates were washed with PBS and blocked for 1 h at room temperature with 1% BSA in PBS. 5 domain ICAM-Ig was diluted to 100 ng/ml in PBS and 50 μl/well was added to the plates O/N at 4° C. HuT 78 cells were centrifuged at 100 g and the cell pellet was treated with 5 mM EDTA for ˜5′ at 37° C. in a 5% CO2 incubator. Cells were washed in 0.14 M NaCl, 0.02 M Hepes, 0.2% glucose and 0.1 mM MnCl2 (assay buffer) and centrifuged. The cells were resuspended in assay buffer to 3.0×10^6 c/ml Inhibitors were diluted in assay buffer to a 2× final concentration and pre-incubated with HuT78 cells for 30′ at room temperature. 100 μl/well of cells and inhibitors were added to the plates and incubated at room temperature for 1 h. 100 μl/well PBS was added and the plates were sealed and centrifuged inverted at 100 g for 5′. Unattached cells were flicked out of the plate and excess PBS was blotted on a paper towel. […] The enzyme reaction was stopped with […] 50 mM glycine/5 mM EDTA and read on a platereader at […]. HUT 78 cell adhesion to 5dICAM-Ig was measured using the p-nitrophenyl n-acetyl-f3-D-glucosaminide method of Landegren, U. (1984). […]

[12] = system: dogs; assay: Acute toxicity, escalating single dose IV and 7-day repeated dose with TK in dogs; assay type: in vivo, dog; details: escalating single dose IV and 7-day repeated dose
Description: 4. Acute Toxicity Studies: For single dose IV in rats, the no observable adverse effect level (NOAEL) was 10 mg/kg IV. For escalating single dose IV and 7-day repeated dose with TK (toxicokinetics) in dogs, the NOAEL was 10 mg/kg IV. For single dose ocular tolerance in rabbits, the NOAEL was 3.5 mg/eye/3× per day (10%).

[13] = system: dogs (beagles); assay: Cardiovascular effects in conscious telemetry-instrumented dogs, IV bolus; assay type: in vivo, dog; details: IV bolus injection
[14] = single IV bolus 30.0 mg/kg, from rat safety pharmacology study

## CS(=O)(=O)c1cccc(C[C@H](NC(=O)c2c(Cl)cc3c(c2Cl)CCN(C(=O)c2ccc4ccoc4c2)C3)C(=O)O)c1 [compound of Formula I]
[1]
  CNS observation: Transient miosis
[2]; single IV bolus 10.0 mg/kg
  AUC0-n: 728 ng·h/mL
  CL: 173 mL/min/kg
  Cmax: 1056 ng/mL
  MRT: 0.920 h
  T1/2: 3.76 h
  Vss: 9.56 L/kg
[2]; [14]
  AUC0-n: 2345.5 ng·h/mL
  Cmax: 5117.3 ng/mL
[3]
  EC50: ≤ 0.15 µM
[3]; read-out: EC50 Cytokine Release GM-CSF
  EC50: 0.545 µM
[3]; read-out: EC50 Cytokine Release IFNγ
  EC50: 0.0016 µM
[3]; read-out: EC50 Cytokine Release IL-1α
  EC50: 0.24 µM
[3]; read-out: EC50 Cytokine Release IL-1β
  EC50: 0.36 µM
[3]; read-out: EC50 Cytokine Release IL-2
  EC50: 0.0018 µM
[3]; read-out: EC50 Cytokine Release IL-3
  EC50: 52.2 µM
[3]; read-out: EC50 Cytokine Release IL-4
  EC50: 0.143 µM
[3]; read-out: EC50 Cytokine Release IL-5
  EC50: 0.11 µM
[3]; read-out: EC50 Cytokine Release IL-6
  EC50: 43.5 µM
[3]; read-out: EC50 Cytokine Release IL-10
  EC50: 0.147 µM
[3]; read-out: EC50 Cytokine Release IL-12p40
  EC50: > 1000 µM
[3]; read-out: EC50 Cytokine Release IL-13
  EC50: 0.36 µM
[3]; read-out: EC50 Cytokine Release IP-10
  EC50: 1.16 µM
[3]; read-out: EC50 Cytokine Release MCP-1
  EC50: 0.005 µM
[3]; read-out: EC50 Cytokine Release MIP-1α
  EC50: 0.02 µM
[3]; read-out: EC50 Cytokine Release TNF-α
  EC50: 0.076 µM
[4]
  NOAEL: 1.05 mg/eye/3× per day
[5]
  levels in conjunctiva/cornea: > 100 nM
[6]
  IC50: 0.002 µM
[7]
  ocular safety and tolerability: safe and well tolerated
[8]; DMSO, gel, ointment, lotion at 1%, dermal TID for 7 days, 10 mg/cm^2
  toxicity: No toxicity
[8]; all groups, below the LLOQ
  plasma level: < 0.5 ng/mL
[9]
  micronuclei in polychromatic erythrocytes: negative
[10]; Week 1, left eye, 1% solution, 0.35 mg/eye TID
  Schirmer Tear Test (OS), individual dogs: 9 mm (2×) and 0 mm (3×) and 7 mm
[10]; Week 1, right eye, 1% solution, 0.35 mg/eye TID
  Schirmer Tear Test (OD), individual dogs: 8 mm (2×) and 6 mm (2×) and 0 mm and 5 mm
[10]; Week 2, left eye, 1% solution TID
  Schirmer Tear Test (OS), individual dogs: 4 mm and 0 mm (2×) and 14 mm and 3 mm and 8 mm
[10]; Week 2, right eye, 1% solution TID
  Schirmer Tear Test (OD), individual dogs: 10 mm and 2 mm (2×) and 11 mm (3×)
[10]; Week 4, left eye, 1% solution TID
  Schirmer Tear Test (OS), individual dogs: 14 mm (2×) and 0 mm (2×) and 7 mm and 5 mm
[10]; Week 4, right eye, 1% solution TID
  Schirmer Tear Test (OD), individual dogs: 15 mm and 2 mm and 0 mm and 5 mm and 10 mm (2×)
[10]; Week 8, left eye, 1% solution TID
  Schirmer Tear Test (OS), individual dogs: 8 mm (2×) and 0 mm and 2 mm and 17 mm and 6 mm
[10]; Week 8, right eye, 1% solution TID
  Schirmer Tear Test (OD), individual dogs: 17 mm and 1 mm and 8 mm and 7 mm (2×) and 11 mm
[10]; Week 12, left eye, 1% solution TID
  Schirmer Tear Test (OS), individual dogs: 8 mm (2×) and 3 mm and 7 mm and 15 mm and 4 mm
[10]; Week 12, right eye, 1% solution TID
  Schirmer Tear Test (OD), individual dogs: 16 mm and 0 mm and 8 mm and 7 mm and 13 mm and 9 mm
[10]; Week 16, left eye, four weeks after last dose and after one month of CsA 0.2% ointment
  Schirmer Tear Test (OS), individual dogs: 17 mm and 3 mm and 5 mm and 16 mm and 7 mm and 19 mm
[10]; Week 16, right eye, four weeks after last dose and after one month of CsA 0.2% ointment
  Schirmer Tear Test (OD), individual dogs: 18 mm and 12 mm and 8 mm (3×) and 22** mm
[10]; Weeks 1-12, left eye
  Maximum-Minimum Analysis, maximal change in STT, OS, individual dogs: 7 mm (2×) and 11 mm and 3 mm and 10 mm and 6 mm
[10]; Weeks 1-12, right eye
  Maximum-Minimum Analysis, maximal change in STT, OD, individual dogs: 3 mm and 8 mm (3×) and −4 mm and 5 mm
[10]; during the treatment period (12 weeks)
  average improvement in STT, all 12 eyes: 4 mm
[10]; pretreatment vs Week 12
  Histopathological evaluation of conjunctival biopsies taken before and after treatment: attenuation of lymphocyte accumulation
[10]; week 12
  mean change in Schirmer test score over pretreatment: Significant improvement
[11]
  EC50: < 0.05 µM
[12]
  NOAEL: 10 mg/kg
[13]
  effects on electrocardiography or hemodynamic parameters: No effects on electrocardiography or hemodynamic parameters
